The values that follow come from patent US7582803B2 (Amgen Inc., priority 2005, dated 2009).

T1 sequence (O14842 whole entry): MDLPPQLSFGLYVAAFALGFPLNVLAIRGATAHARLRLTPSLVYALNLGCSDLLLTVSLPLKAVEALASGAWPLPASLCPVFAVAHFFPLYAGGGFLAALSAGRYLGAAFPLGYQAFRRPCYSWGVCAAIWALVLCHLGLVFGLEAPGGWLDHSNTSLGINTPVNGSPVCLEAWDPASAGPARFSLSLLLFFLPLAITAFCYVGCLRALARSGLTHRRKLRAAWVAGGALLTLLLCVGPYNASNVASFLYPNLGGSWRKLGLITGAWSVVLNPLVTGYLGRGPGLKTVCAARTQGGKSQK

The subject of the first assay is islet cells. The assay can be described thus: Insulin secretion assay, human islet cells. It counts as cell-based. Particulars: KRBH with 11.2 mM glucose, insulin by SPA, read-out: EC50, stimulation of insulin secretion from islet cells. The method, then:
Human islets were isolated from cadaveric donors. Islets were treated with trypsin (0.25% (w/v) and cells were seeded in 96-well plates containing 3,000 cells per well. Cells were cultured in Roswell Park Memorial Institute (RMPI) media containing 10% fetal bovine serum.
For determination of insulin secretion, media was removed from islet cells and replaced with Krebs-Ringer bicarbonate buffer containing 10 mM HEPES (KRBH) and 2 mM glucose. After one hour incubation, media was replaced with KRBH containing 11.2 mM glucose and test compounds. Insulin released into the medium from the islet cells was measured using scintillation proximity assay (SPA).
For `CC#C[C@@H](CC(=O)O)c1ccc(OC2CCc3cc(-c4cccs4)ccc32)cc1` (stereo partly drawn) [Example 4, (3S)-3-[4-(5-Thiophen-2-yl-indan-1-yloxy)-phenyl]-hex-4-ynoic acid], the EC50 (in general, the concentration giving half of the maximal effect) was < 1 µM.
As to `CC#C[C@@H](CC(=O)O)c1ccc(OC2CCc3c(-c4cccc(OCC)c4)cccc32)cc1` (stereo partly drawn) [Example 9, (3S)-3-{4-[4-(3-Ethoxy-phenyl)-indan-1-yloxy]-phenyl}-hex-4-ynoic acid], the half-maximal effective concentration (EC50) was < 1 µM.

Another assay concerns the target T1, human GPR40 (Homo sapiens, UniProt O14842).
T1 construct: expressed in transfected cells; host or cells: CHO cells
The experiment in a line: Cell-based aequorin assay. Particulars: CHO cells stably transfected with GPR40 and aequorin; 0.01% HSA; aequorin luminescence; read-out: Relative EC50. The protocol: Cell-based aequorin assays were employed to characterize the modulatory activity of compounds on the GPR40 signaling pathway. In an exemplary assay, CHO cells were stably transfected with both GPR40 and Aequorin (Euroscreen). Cells were detached from the tissue culture dish with 2 mL of trypsin (0.25% (w/v)). Trypsinization was halted with 28 mL of Hanks Buffered Salt Solution containing 20 mM Hepes (H/HBSS) and 0.01% fatty acid-free human serum albumin (HSA). Coelantrazine is added to 1 ug/mL, and the cells were incubated for 2 hours at room temperature. Compounds were dissolved in DMSO for preparation of 10 mM stock solutions. Compounds were diluted in H/HBSS containing 0.01% HSA. Serial dilutions of the test compounds were prepared to determine dose response.
Aequorin luminescence measurements were made using an EG&G Berthold 96-well luminometer, and the response was measured over a 20 second interval after cells and compounds were mixed. The maximum relative light units was plotted to determine dose response. The EC50 (effective concentration to reach 50% maximal response) was determined from the dose response plot.
Table 1 presents representative data (EC50 values) obtained for exemplary compounds of the invention for the relative activation of human GPR40. […]
On to `CC#C[C@@H](CC(=O)O)c1ccc(OC2CCc3cc(-c4cccs4)ccc32)cc1` (stereo partly drawn) [Example 4, (3S)-3-[4-(5-Thiophen-2-yl-indan-1-yloxy)-phenyl]-hex-4-ynoic acid], for which the EC50 lay within 0.01 to 0.1 µM.
With `CC#C[C@@H](CC(=O)O)c1ccc(OC2CCc3c(-c4cccc(OCC)c4)cccc32)cc1` (stereo partly drawn) [Example 9, (3S)-3-{4-[4-(3-Ethoxy-phenyl)-indan-1-yloxy]-phenyl}-hex-4-ynoic acid], the EC50 was in the range of 1 to 10 µM.
Take `Cn1ccnc1[C@@H](CC(=O)O)c1ccc(OCc2ccc3c(c2)C(C)(C)CCC3(C)C)cc1` [Example 71, (S)-3-(1-Methyl-1H-imidazol-2-yl)-3-[4-(5,5,8,8-tetramethyl-5,6,7,8-tetrahydro-naphthalen-2-ylmethoxy)-phenyl]-propionic acid]: the EC50 is 0.1 to 1 µM.
Consider `CCc1cc2c(cc1COc1ccc([C@H](CC(=O)O)c3nccn3C)cc1)C(C)(C)CCC2(C)C` [Example 94, (S)-3-(4-((3-Ethyl-5,5,8,8-tetramethyl-5,6,7,8-tetrahydronaphthalen-2-yl)methoxy)phenyl)-3-(1-methyl-1H-imidazol-2-yl)propanoic acid], for which the EC50 lay in the range of 0.1 to 1 µM.
In the case of `O=C(O)CC(c1ccc(OC2Cc3ccccc3C2)cc1)c1cc(F)cc(F)c1` (racemic) [Example 36, (+/−)3-(3,5-Difluorophenyl)-3-(4-(2,3-dihydro-1H-inden-2-yloxy)phenyl)propanoic acid], the concentration for a half-maximal effect (EC50) was in the range of 0.1 to 1 µM.
For `Cn1nncc1[C@@H](CC(=O)O)c1ccc(OCc2ccc3c(c2)C(C)(C)CCC3(C)C)cc1` [Example 73, (S)-3-(3-methyl-3H-1,2,3-triazol-4-yl)-3-(4-((5,5,8,8-tetramethyl-5,6,7,8-tetrahydronaphthalen-2-yl)methoxy)phenyl)propanoic acid], the half-maximal effective concentration (EC50) is 0.01 to 0.1 µM.
Regarding `CC#C[C@@H](CC(=O)O)c1ccc(OC2CCc3c2ccc(OC)c3OC)cc1` (stereo partly drawn) [Example 19, (3S)-3-[4-(4,5-Dimethoxy-indan-1-yloxy)-phenyl]-hex-4-ynoic acid], the 50% effective concentration (EC50) lay within 1 to 10 µM.
`CC1(C)CCC(C)(C)c2cc(COc3ccc([C@H](CC(=O)O)c4cnco4)cc3)ccc21` [Example 75, (S)-3-(Oxazol-5-yl)-3-(4-((5,5,8,8-tetramethyl-5,6,7,8-tetrahydronaphthalen-2-yl)methoxy)phenyl)propanoic acid]: the concentration for a half-maximal effect (EC50) was 0.1 to 1 µM.
On to `Cn1ccnc1[C@@H](CC(=O)O)c1ccc(OCc2cc3c(cc2C2CC2)C(C)(C)CCC3(C)C)cc1` [Example 92, (S)-3-(4-((3-Cyclopopyl-5,5,8,8-tetramethyl-5,6,7,8-tetrahydronaphthalen-2-yl)methoxy)phenyl)-3-(1-methyl-1H-imidazol-2-yl)propanoic acid], for which the EC50 was > 10 µM.
In the case of `Cc1cnc(C(CC(=O)O)c2ccc(OC3CCc4cc(Cl)ccc43)cc2)o1` (racemic) [Example 34, (+/−)-3-(4-(5-Chloro-2,3-dihydro-1H-inden-1-yloxy)phenyl)-3-(5-methyloxazol-2-yl)propanoic acid], the EC50 was 1 to 10 µM.
In the case of `O=C(O)CC(c1ccc(OC2Cc3ccccc3C2)cc1)c1cc(F)ccc1F` (racemic) [Example 37, (+/−)3-(2,5-Difluorophenyl)-3-(4-(2,3-dihydro-1H-inden-2-yloxy)phenyl)propanoic acid], the 50% effective concentration (EC50) lay within 0.1 to 1 µM.
Same read-out and setting: to `CC#C[C@@H](CC(=O)O)c1ccc(OC2CCc3cc(-c4cccc(OC(F)(F)F)c4)ccc32)cc1` (stereo partly drawn) [Example 50, (3S)-3-(4-(5-(3-(Trifluoromethoxy)phenyl)-2,3-dihydro-1H-inden-1-yloxy)phenyl)hex-4-ynoic acid] belongs 0.01 to 0.1 µM.
For `Cn1cncc1[C@@H](CC(=O)O)c1ccc(OCc2ccc3c(c2)C(C)(C)CCC3(C)C)cc1` [Example 74, (S)-3-(1-methyl-1H-imidazol-5-yl)-3-(4-((5,5,8,8-tetramethyl-5,6,7,8-tetrahydronaphthalen-2-yl)methoxy)phenyl)propanoic acid], the 50% effective concentration (EC50) was 0.1 to 1 µM.
On to `CC#C[C@@H](CC(=O)O)c1ccc(OCCC2CCCC2)cc1` [Example 70, (S)-3-(4-(2-cyclopentylethoxy)phenyl)hex-4-ynoic acid], for which the 50% effective concentration (EC50) is 0.1 to 1 µM.
Same read-out and setting: to `O=C(O)CC(c1ccccc1)c1ccc(OC2CCc3cc(Br)ccc32)cc1` (racemic) [Example 41, (+/−)-3-[4-(5-Bromo-indan-1-yloxy)-phenyl]-3-phenyl-propionic acid] belongs 0.1 to 1 µM.
`CC#C[C@@H](CC(=O)O)c1ccc(OC2CCc3c(-c4ccc(OC(F)(F)F)cc4)cccc32)cc1` (stereo partly drawn) [Example 6, (3S)-3-{4-[4-(4-Trifluoromethoxy-phenyl)-indan-1-yloxy]-phenyl}-hex-4-ynoic acid]: the EC50 was 0.01 to 0.1 µM.
Regarding `CC#C[C@H](CC(=O)O)c1ccc(OC2CCc3cc(-c4cccc(OC)c4)ccc32)cc1` (stereo partly drawn) [Example 62, (3R)-3-(4-(5-(3-Methoxyphenyl)-2,3-dihydro-1H-inden-1-yloxy)phenyl)hex-4-ynoic acid], the EC50 is > 10 µM.
As for `CC#C[C@@H](CC(=O)O)c1ccc(OC2c3ccccc3CC2C)cc1` (mixture of isomers) [Example 21, (3S)-3-[4-(2-Methyl-indan-1-yloxy)-phenyl]-hex-4-ynoic acid], the EC50 was 0.01 to 0.1 µM.
Turning to `C[C@H](Oc1ccc([C@H](CC(=O)O)c2nccn2C)cc1)c1ccc2c(c1)C(C)(C)CCC2(C)C` [Example 87, (3S)-3-(1-Methyl-1H-imidazol-2-yl)-3-(4-(1-(5,5,8,8-tetramethyl-5,6,7,8-tetrahydronaphthalen-2-yl)ethoxy)phenyl)propanoic acid], the EC50 is > 10 µM.
For `COc1ccc(F)c(-c2ccc3c(c2)CCC3Oc2ccc([C@@H](C=C(C)C)CC(=O)O)cc2)c1` (stereo partly drawn) [Example 57], the half-maximal effective concentration (EC50) was 0.1 to 1 µM.
Regarding `Cn1ccnc1[C@@H](CC(=O)O)c1ccc(OCc2cc3c(cc2Br)C(C)(C)CCC3(C)C)cc1` [Example 91, (S)-3-(4-((3-Bromo-5,5,8,8-tetramethyl-5,6,7,8-tetrahydronaphthalen-2-yl)methoxy)phenyl)-3-(1-methyl-1H-imidazol-2-yl)propanoic acid], the EC50 was 0.1 to 1 µM.
`CC#C[C@@H](CC(=O)O)c1ccc(OC2CCc3cc(-c4cc(C)ccc4OCCCC)ccc32)cc1` (stereo partly drawn) [Example 3, (3S)-3-(4-(5-(2-Butoxy-5-methylphenyl)-2,3-dihydro-1H-inden-1-yloxy)phenyl)hex-4-ynoic acid]: the EC50 is 0.01 to 0.1 µM.
Same read-out and setting: to `CC#C[C@H](CC(=O)O)c1ccc(OC2CCc3cc(-c4cccc(OC)c4F)ccc32)cc1` (stereo partly drawn) [Example 67, (3R)-3-(4-(5-(2-Fluoro-3-methoxyphenyl)-2,3-dihydro-1H-inden-1-yloxy)phenyl)hex-4-ynoic acid] belongs > 10 µM; to `Cn1ccnc1[C@@H](CC(=O)O)c1ccc(OC2CCc3cc(Cl)ccc32)cc1` (stereo partly drawn) [Example 58, (3S)-3-(4-(5-Chloro-2,3-dihydro-1H-inden-1-yloxy)phenyl)-3-(1-methyl-1H-imidazol-2-yl)propanoic acid], 1 to 10 µM; to `CC#C[C@@H](CC(=O)O)c1ccc(OC2CCc3c(C)cccc32)cc1` (stereo partly drawn) [Example 16, (3S) 3-[4-(4-Methyl-indan-1-yloxy)-phenyl]-hex-4-ynoic acid], 0.01 to 0.1 µM.
Take `CC#C[C@@H](CC(=O)O)c1ccc(OC2CCc3cc(-c4ccc(C(F)(F)F)cc4)ccc32)cc1` (stereo partly drawn) [Example 1]: the EC50 was 0.01 to 0.1 µM.
Same read-out and setting: to `Cc1ccc(C(CC(=O)O)c2ccc(OC3CCc4cc(Cl)ccc43)cc2)s1` (racemic) [Example 23, (+/−)-3-(4-(5-Chloro-2,3-dihydro-1H-inden-1-yloxy)phenyl)-3-(5-methylthiophen-2-yl)propanoic acid] belongs 1 to 10 µM.
For the compound `O=C(O)CC(c1ccc(OC2CCCCc3ccccc32)cc1)c1cccs1` (racemic) [Example 49, (+/−)3-(4-(6,7,8,9-Tetrahydro-5H-benzo[7]annulen-5-yloxy)phenyl)-3-(thiophen-2-yl)propanoic acid], the EC50 was in the range of 1 to 10 µM.
